The values below are quoted from earlier work in US20230149829A1, “ORAL COMPOSITIONS OF PLANTS THROUGH A DOUBLE EXTRACTION SYSTEM AND METHODS OF MAKING THE SAME” (Nulixir Inc., priority 2021, published 2023).

Broadly, the log P is the decadic logarithm of the partition coefficient of the neutral form, usually between octanol and water.

The conditions of data set [1]: n-octanol and water; categorization assumed at pH=7 unless stated otherwise.

Take `O=CC=Cc1ccccc1` [Cinnamaldehyde]: the “inhibitory activity against fungi” value with many strains of fungi is “strong inhibitory activity”. Regarding `COc1ccc([C@@]23CCC(=O)C[C@@H]2N(C)CC3)cc1OC` [mesembrine], the “log P” value in data set [1] is given as approximately 1.5. As to `COc1cc2c(c(OC)c1OC)-c1c(cc3c(c1OC)OCO3)CC(C)C(C)C2` (single isomer, unassigned; (-)) [(−)-schisandrin B], the “log P” value in data set [1] was approximately 4. Regarding `COc1cc2c(c(OC)c1OC)-c1c(cc(OC)c(OC)c1OC)C[C@H](C)[C@H](C)C2` [(−)-schisandrin A], in data set [1], the lipophilicity (log P) is approximately 3.6.

In the case of (R)-kawain, the “log P” value in data set [1] is on record as approximately 2.7. Consider `CC(C)=CCC[C@](C)(O[C@@H]1O[C@H](CO[C@@H]2O[C@H](CO)[C@@H](O)[C@H](O)[C@H]2O)[C@@H](O)[C@H](O)[C@H]1O)[C@H]1CC[C@]2(C)[C@@H]1[C@H](O)C[C@@H]1[C@@]3(C)CC[C@H](O[C@@H]4O[C@H](CO)[C@@H](O)[C@H](O)[C@H]4O[C@@H]4O[C@H](CO)[C@@H](O)[C@H](O)[C@H]4O)C(C)(C)[C@@H]3CC[C@]12C` [ginsenoside rb1], for which the log partition coefficient (log P) in data set [1] is approximately −1.

As for methylliberine, the log partition coefficient (log P) in data set [1] is approximately −0.083.

With `CC(=O)OC1C=CC(=O)N(C(=O)CCc2ccccc2)C1` (stereo not drawn) [pipermethystine], the lipophilicity (log P) in data set [1] is approximately 1.8. On to `COC1=CC(=O)O[C@@H](CCc2ccc3c(c2)OCO3)C1` [7,8-dihydromethysticin], for which the lipophilicity (log P) in data set [1] is on record as approximately 2.2. As for `COc1cc(/C=C\c2ccc(OC)c(O)c2)oc(=O)c1` [11-hydroxyyangonin], the lipophilicity (log P) in data set [1] was approximately 2.2. For `COc1cc2c(c(OC)c1OC)-c1c(cc(OC)c(OC)c1OC)C[C@](C)(O)[C@@H](C)C2` [(+)-schisandrin], in data set [1], the “log P” value was approximately 5. For `COc1ccc(C23C=CC(O)CC2N(C)CC3)cc1OC` (stereo not drawn) [mesembrenol], the “log P” value in data set [1] was approximately 2.4. As to `COc1ccc(CCc2cc(OC)cc(=O)o2)cc1` [7,8-dihydroyangonin], the log partition coefficient (log P) in data set [1] is reported as approximately 2.9. For schisandroside C, in data set [1], the “log P” value is approximately 1.6. On to `COc1ccc([C@@]23C=CC(=O)C[C@@H]2N(C)CC3)cc1OC` [mesembrenone], for which, in data set [1], the lipophilicity (log P) is approximately 1.3. For `CC(C)=C[C@H]1C[C@](C)(O)[C@@H]2[C@H]3CC[C@@H]4[C@@]5(C)CC[C@H](O[C@@H]6OC[C@H](O)[C@H](O[C@@H]7O[C@H](CO)[C@@H](O)[C@H](O)[C@H]7O)[C@H]6O[C@@H]6O[C@@H](CO)[C@H](O)[C@H]6O)C(C)(C)[C@@H]5CC[C@@]4(C)[C@@]34CO[C@@]2(C4)O1` [bacopaside X], the log partition coefficient (log P) in data set [1] is on record as approximately 2.2. As to hericerin, the “log P” value in data set [1] is given as approximately 6.4.

Turning to `CC(C)=C[C@H]1C[C@](C)(O)[C@H]2[C@H]3CC[C@@H]4[C@@]5(C)CC[C@H](O[C@@H]6O[C@H](CO)[C@@H](O)[C@H](O[C@@H]7O[C@H](CO)[C@@H](O)[C@H](O)[C@H]7O)[C@H]6O[C@@H]6O[C@@H](CO)[C@H](O)[C@H]6O)C(C)(C)[C@@H]5CC[C@@]4(C)[C@@]34CO[C@@]2(C4)O1` [bacoside A3], the “log P” value in data set [1] was approximately 2.1.

As for `COc1cc([C@H]2Oc3cc(O)c4c(=O)c(O)c(-c5ccc(O)cc5)oc4c3O[C@@H]2CO)ccc1O` [rhodiolin], the log partition coefficient (log P) in data set [1] is on record as approximately 2. For `CC(C)=C[C@@H]1CO[C@]23C[C@]4(CO2)[C@H](CC[C@@H]2[C@@]5(C)CC[C@H](O[C@@H]6OC[C@H](O)[C@H](O[C@@H]7O[C@H](CO)[C@@H](O)[C@H](O)[C@H]7O)[C@H]6O[C@@H]6O[C@@H](CO)[C@H](O)[C@H]6O)C(C)(C)[C@@H]5CC[C@]24C)[C@H]3[C@@]1(C)O` [bacopasaponin C], the log partition coefficient (log P) in data set [1] is on record as approximately 2. `N#C[C@@]1(O[C@@H]2O[C@H](CO)[C@@H](O)[C@H](O)[C@H]2O)C=C[C@@H](O)C1` [tetraphyllin B]: in data set [1], the “log P” value is approximately −2.5. Turning to `CC1=C(CO)C(=O)O[C@@H]([C@@H](C)[C@H]2CC[C@H]3[C@@H]4C[C@H](Cl)[C@]5(O)[C@@H](O)C=CC(=O)[C@]5(C)[C@H]4CC[C@]23C)C1` [6a-chloro-5b-hydroxywithaferin A], in data set [1], the “log P” value is reported as approximately 3.2. In the case of herinacine A, in data set [1], the “log P” value is reported as approximately 2.5. Regarding `COC1=CC(=O)OC(/C=C/c2ccc(OC)cc2)C1` (stereo not drawn) [5,6-dihydroyangonin], the lipophilicity (log P) in data set [1] is given as approximately 2.5. On to tortuosomine, for which the “log P” value in data set [1] is approximately 3. For the compound `CC(C)=CCC[C@](C)(O[C@@H]1O[C@H](CO)[C@@H](O)[C@H](O)[C@H]1O)[C@H]1CC[C@]2(C)[C@@H]1[C@H](O)C[C@@H]1[C@@]3(C)CC[C@H](O)C(C)(C)[C@@H]3[C@@H](O[C@@H]3O[C@H](CO)[C@@H](O)[C@H](O)[C@H]3O)C[C@]12C` [ginsenoside rg1], the “log P” value in data set [1] is listed as approximately 0.8. For bacopaside B, the log partition coefficient (log P) in data set [1] is approximately 2.8.
